Source: US20200237759A1, “DOSAGE REGIME AND METHOD FOR TREATING PULMONARY ARTERIAL HYPERTENSION” (Altavant Sciences GmbH, priority 2019, published 2020)

Experiment: Thermodynamic stability of crystalline forms
Format: physicochemical
Settings: compared to Form 1

Structure (SMILES): CCOC(=O)[C@@H]1CC2(CCN(c3cc(O[C@H](c4ccc(Cl)cc4-c4ccccc4)C(F)(F)F)nc(N)n3)CC2)CN1 [Form 3, (S)-ethyl 8-(2-amino-6-((R)-1-(5-chloro-[1,1′-biphenyl]-2-yl)-2,2,2-trifluoroethoxy)pyrimidin-4-yl)-2,8-diazaspiro[4.5]decane-3-carboxylate]
- thermodynamic stability: substantially greater thermodynamic stability compared to Form 1
